We go through 12 molecules from US20030082722A1, “Method for amplifying expression from a cell specific promoter” (priority 2001, published 2003).

Where two headings read alike, the source gives them in different places.

The term IC50 denotes the concentration that inhibits the measured activity by half. The term IC80 denotes the concentration at which the effect reaches the 80% level.

Test [1] deals with MDA-MB-231. In words: IC50 of chemotherapeutic agents and Ad/gTRAIL, parental cells. The test is classed as cell-based, human. The procedure: Cell Lines and Reagents. Human breast cancer cell lines MCF7, MDA-MB-231, MDA-MB-453, and MDA-MB-468 were grown in RPMI 1640 medium supplemented with 10% heat-inactivated fetal bovine serum, and antibiotics, and glutamine. Immortalized nontransformed breast epithelial cell lines MCF10A and MCF10F and normal human mammary epithelial cells (NHMEC) were purchased from Clonetics (San Diego, Calif.). Primary normal human mammary epithelial cells (PNHMEC) isolated from normal breast tissue (Stampfer and Yaswen, 1994) were provided by Dr. Yinhua Yu (The University of Texas M. D. Anderson Cancer Center). Doxorubicin-resistant MDA-MB-231 cells were obtained through the stepwise exposure of the parental cells to doxorubicin. […] The residual surviving cells were then allowed to grow in fresh medium. When these residual cells reached 70-80% confluence in the plate, they were treated again with the same concentration of doxorubicin. After this cycle was repeated several times, the concentration of doxorubicin was increased multiple times followed by the regrowth of cells. […] Other agents used in these experiments included gemcitabine (Eli Lilly and Co., Indianapolis, Ind.), vinorelbine (Pierre Fabre, Idron 64320, France), paclitaxel (Bristol-Myers Squibb Co., Princeton, N.J.), irinotecan (Pharmacia & Upjohn Co., Kalamazoo, Mich.), floxuridine (Ben Venue Labs, Inc., Bedford, Ohio), and TRAIL protein (R & D Systems, Minneapolis, Minn.).
Assays. Cell viability, flow cytometry, and Western blot analysis were performed as described in previous examples. See also Gu et al., 2000 and Kagawa et al., 2001. Biochemical analysis, using β-galactosidase was determined as dexcribed in Example 1. For Western analysis anti-caspase-8 (R&D systems, Minneapolis, Minn.), anti-caspase-3 (BD PharMingen, San Diego, Calif.), anti-PARP (BD PharMingen), anti-GFP (Clontech Inc., Palo Alto, Calif.), and anti-hTRAIL (Alexis, San Diego, Calif.) antibodies were used. Apoptosis in tumors was assessed by in situ TUNEL staining as decribed in Example 3.
Statistical Analysis. Differences among the treatment groups were assessed as described in previous examples. Survival was assessed using the Kaplan-Meier method. The drug concentration that inhibited cells growth by 50% (IC50) was calculated by CurveExpert 1.3 software (Starkville, Miss.).

Test [2] relates to 231/ADR. In words: IC50 of chemotherapeutic agents and Ad/gTRAIL, doxorubicin-resistant cells. The test is classed as cell-based, human. Conditions: for IC50: Homo sapiens. The procedure: Cell Lines and Reagents. […] Immortalized nontransformed breast epithelial cell lines MCF10A and MCF10F and normal human mammary epithelial cells (NHMEC) were purchased from Clonetics (San Diego, Calif.). […] Doxorubicin-resistant MDA-MB-231 cells were obtained through the stepwise exposure of the parental cells to doxorubicin. […] The residual surviving cells were then allowed to grow in fresh medium. When these residual cells reached 70-80% confluence in the plate, they were treated again with the same concentration of doxorubicin. After this cycle was repeated several times, the concentration of doxorubicin was increased multiple times followed by the regrowth of cells.
Assays. Cell viability, flow cytometry, and Western blot analysis were performed as described in previous examples. […] For Western analysis anti-caspase-8 (R&D systems, Minneapolis, Minn.), anti-caspase-3 (BD PharMingen, San Diego, Calif.), anti-PARP (BD PharMingen), anti-GFP (Clontech Inc., Palo Alto, Calif.), and anti-hTRAIL (Alexis, San Diego, Calif.) antibodies were used.
Statistical Analysis. Differences among the treatment groups were assessed as described in previous examples. Survival was assessed using the Kaplan-Meier method.

Test [3] concerns DLD1/TRAIL-R. The test is described as follows: Sensitizing TRAIL-resistant cells to Ad/gTRAIL by chemotherapeutic agents. Conditions: Ad/gTRAIL 1000 viral particles/cell; 96 h.
Protocol: Chemotherapeutic agents concentrations are shown on the bottom of each graph. […] Cell viability was determined at 96 h after treatment. Levels are mean+/−SD of two quadruplet assays. […] Cells were treated with adenovector at 1000 moi (vp), 5-FU 50 μm and 1.25 μm MMC. In combination group, the dose were the same as the single agent group. Cells were harvested at 96 h after treatment and cell lysate was used for Western blot analysis.
Test [4] has as its system lung metastasis derived from breast cancer cells 231/ADR. In words: Lung metastatic tumor model, aerosolized Ad/gTRAIL with paclitaxol. The test is classed as in vivo, nude mice. Conditions: day 35 after starting treatment.
Protocol: The aerosol vector administration are the following: adenovirus of 1×10^12 particles was diluted in PBS to a final volume of Iml and was mixed with 500 μl (5 mg) of protamine. […] The complex was placed into the nebulizer chamber. The aerosol from the nebulizer was passed through a sealed plastic cage that housed the mice. The exposure required approximately 50 minutes, during which time the mice were allowed to move freely about the cage.
The test system of test [5] is H1299 lung cancer cells.
Description: Construction of Ad/gBax. […] This bicistronic vector as modified combined the two expression cassettes of the Tet-Off system (BD Clontech, San Francisco, Calif., USA) into a single vector (FIG. 28). […] The second cassette contained the cDNA of the GFP/Bax fusion protein under the control of a compound promoter consisting of TRE and the minimal immediate early promoter of CMV. GFP was included to facilitate the selection of recombinant virus and the detection of expression products.
Test [6] has as its system lung. In words: Reporter gene expression in lung after aerosolized vector. The test is classed as in vivo, mice. Conditions: protamine 1 mg/ml, hydrocortisone 250 ng/ml. The method, then: The aerosol vector administration are the following: adenovirus of 1×10^12 particles was diluted in PBS to a final volume of Iml and was mixed with 500 μl (5 mg) of protamine. The Protamine-adenovirus complex was mixed with 5 ml hydrocortisone (concentration of 250 ng/ml in H2O) after incubating 10 min at room temperature. The complex was placed into the nebulizer chamber. The aerosol from the nebulizer was passed through a sealed plastic cage that housed the mice. The exposure required approximately 50 minutes, during which time the mice were allowed to move freely about the cage.
Treatment of lung metastasis by aerosolized vector administration was also tested. […] Subsequent aerosol administration of adenovectors will contain protamine and hydrocortisone in the vector solution.
Background: In a reporter assay the amount or activity of a reporter protein is the signal.

The subject of test [7] is MDA-MB-231, MDA-MB-468, MDA-MB-453 and MCF7 cells. In words: Cell viability after recombinant TRAIL protein. The format is cell-based, human. The method, then: Cell Lines and Reagents. Human breast cancer cell lines MCF7, MDA-MB-231, MDA-MB-453, and MDA-MB-468 were grown in RPMI 1640 medium supplemented with 10% heat-inactivated fetal bovine serum, and antibiotics, and glutamine. Immortalized nontransformed breast epithelial cell lines MCF10A and MCF10F and normal human mammary epithelial cells (NHMEC) were purchased from Clonetics (San Diego, Calif.). Primary normal human mammary epithelial cells (PNHMEC) isolated from normal breast tissue (Stampfer and Yaswen, 1994) were provided by Dr. Yinhua Yu (The University of Texas M. D. Anderson Cancer Center). Doxorubicin-resistant MDA-MB-231 cells were obtained through the stepwise exposure of the parental cells to doxorubicin. In brief, the parental MDA-MB-231 cells were treated with doxorubicin (Ben Venue Labs, Inc., Bedford, Ohio) at concentration of 2 μM (1.16 μg/ml, which is the IC80 of MDA-MB-231 cells). Most cells were killed after day 4 of treatment. The residual surviving cells were then allowed to grow in fresh medium. When these residual cells reached 70-80% confluence in the plate, they were treated again with the same concentration of doxorubicin. […]
To test whether these cells were similarly sensitive to soluble TRAIL protein, cells were treated with recombinant TRAIL protein at various concentrations up to 800 ng/ml. Cell viability was then determined at 24, 48, and 96 h after treatment. […]

The mark [8] stands for this setting: Homo sapiens, MDA-MB-231, read-out: IC50.

As to `COc1cccc2c1C(=O)c1c(O)c3c(c(O)c1C2=O)C[C@@](O)(C(=O)CO)C[C@@H]3O[C@H]1C[C@H](N)[C@H](O)[C@H](C)O1` [Doxorubicin, doxorubicin], the IC50 worked out at 1140 nM in test [1] (Homo sapiens, MDA-MB-231) and 97600 nM in test [2]. In addition, the IC80 in test [1] (Homo sapiens, MDA-MB-231) came out at 2000 nM. The susceptibility to doxorubicin result in test [1] (parental MDA-MB-231, 2 μM) is on record as “susceptible”; in test [2] (16 μM), “resistant”. Also, the “sensitization of DLD1/TRAIL-R to Ad/gTRAIL (cell viability)” value (“sensitization of DLD1/TRAIL-R” below) in test [3] is on record as “can sensitize DLD1/TRAIL-R to Ad/gTRAIL at certain concentrations”.
`O=c1[nH]c(=O)n([C@H]2C[C@H](O)[C@@H](CO)O2)cc1F` [Floxuridine, floxuridine]: the IC50 was 100 nM in test [1] (Homo sapiens, MDA-MB-231) and 4700 nM in test [2]. Also, the “sensitization of DLD1/TRAIL-R” value in test [3] is “can be sensitized to Ad/gTRAIL”.
Consider `Nc1ccn([C@@H]2O[C@H](CO)[C@@H](O)C2(F)F)c(=O)n1` [Gemcitabine, gemcitabine], for which the IC50 in test [1] (setting [8]) was 18.6 nM; in test [2], 37 nM.
With `CCc1c2c(nc3ccc(OC(=O)N4CCC(N5CCCCC5)CC4)cc13)-c1cc3c(c(=O)n1C2)COC(=O)[C@]3(O)CC` [Irinotecan, irinotecan], the IC50 came out at 1540 nM in test [1] (Homo sapiens, MDA-MB-231) and 5940 nM in test [2].
For the molecule `CC(=O)O[C@H]1C(=O)[C@@]2(C)[C@H]([C@H](OC(=O)c3ccccc3)[C@]3(O)C[C@H](OC(=O)[C@H](O)[C@@H](NC(=O)c4ccccc4)c4ccccc4)C(C)=C1C3(C)C)[C@]1(OC(C)=O)CO[C@@H]1C[C@@H]2O` [Paclitexol, paclitaxel], the IC50 in test [1] (Homo sapiens, MDA-MB-231) is 3.46 nM; in test [2], 16.9 nM. In addition, the “numbers of tumor nodules in the lung” value in test [4] was “dramatically reduced the numbers of tumor nodules”.
Take `CN(C)[C@@H]1C(O)=C(C(N)=O)C(=O)[C@@]2(O)C(O)=C3C(=O)c4c(O)cccc4[C@@](C)(O)[C@H]3C[C@@H]12` [Tc, tetracycline]: the “concentration that started to inhibit GFP-Bax expression” value in test [5] came out at 1 ng/mL.
For the molecule `CCC1=C[C@@H]2CN(C1)Cc1c([nH]c3ccccc13)[C@@](C(=O)OC)(c1cc3c(cc1OC)N(C)[C@H]1[C@@](O)(C(=O)OC)[C@H](OC(C)=O)[C@]4(CC)C=CCN5CC[C@]31[C@@H]54)C2` [Vinorelbine, vinorelbine], the figures for the IC50 in test [1] (setting [8]) and in test [2] were 2.4 nM and 22.9 nM, respectively.
Consider `O=c1[nH]cc(F)c(=O)[nH]1` [fluorouracil], for which the “sensitization of DLD1/TRAIL-R” value in test [3] is “can sensitize DLD1/TRAIL-R to Ad/gTRAIL at certain concentrations”.
For `C[C@]12CCC(=O)C=C1CC[C@@H]1[C@@H]2[C@@H](O)C[C@@]2(C)[C@H]1CC[C@]2(O)C(=O)CO` [hydrocortisone], the “reporter gene LacZ expression in lung” value in test [6] was “dramatically increased”.
As for `CO[C@@]12[C@H](COC(N)=O)C3=C(C(=O)C(C)=C(N)C3=O)N1C[C@@H]1N[C@@H]12` [mutamycin], in test [3], the “sensitization of DLD1/TRAIL-R” value is recorded as “can sensitize DLD1/TRAIL-R to Ad/gTRAIL at certain concentrations”.
For protamine, in test [6], the “reporter gene LacZ expression in lung” value is recorded as “dramatically increased”.

B1: TRAIL protein: recombinant soluble TRAIL protein (R & D Systems) (protein, UniProt P50591 39-281, looked up)
extracellular domain: TNELKQMQDKYSKSGIACFLKEDDSYWDPNDEESMNSPCWQVKWQLRQLVRKMILRTSEETISTVQEKQQNISPLVRERGPQRVAAHITGTRGRSNTLSSPNSKNEKALGRKINSWESSRSGHSFLSNLHLRNGELVIHEKGFYYIYSQTYFRFQEEIKENTKNDKQMVQYIYKYTSYPDPILLMKSARNSCWSKDAEYGLYSIYQGGIFELKENDRIFVSVTNEHLIDMDHEASFFGAFLVG
modifications: extracellular domain recombinant soluble
In the case of B1, the “sensitivity to TRAIL protein (cell viability)” value was “sensitive” in test [7] (MDA-MB-231 and MDA-MB-468, up to 800 ng/ml, 24, 48, 96 h); “resistant” in test [7] (MDA-MB-453 and MCF7, 800 ng/ml).
